# Assay results published in PMC6770336, “Computationally Designed Peptides for Zika Virus Detection: An Incremental Construction Approach” (Biomolecules, 2019).
# Tests used:
# intact ZIKV particles [1] = test: Direct ELISA vs. intact ZIKV particles; format: binding, Zika virus; settings: for FPLR—Dynamic Range: direct ELISA, plates coated with 10-fold serial dilutions of intact ZIKV particles, biotinylated peptide 20 μM in PBS pH 7.4 (4G2 1 μg/mL in PBST), absorbance 450 nm; for FPLR—Dynamic Range / FPLR—maximum / FPLR—minimum: four parameters logistic fit; for FPLR—Dynamic Range / FPLR—C50 / LOD: n = 3; for Long-term stability: dose-response performance of the ELISA reproducible over time, stock 1 mM in 10 mM PBS pH 7.4 stored at −30° C; for FPLR—C50: four parameters logistic fit of delta absorbance vs log ZIKV concentration; for FPLR—C50 / FPLR—maximum / FPLR—minimum / LOD: peptide 20 μM in PBS (4G2 1 μg/mL in PBST); for LOD: interpolated from calibration curve, LOD = AvB + 3 × SDB
# Experimental: Before biotin functionalization, peptides stock solution was reduced using Tris[2-carboxyethyl] phosphine hydrochloride (TCEP) disulfide reducing gel from ThermoFisher Scientific available online at: www.thermofisher.com (accessed on 15 April 2019) and after 1 h, the gel was removed using TCEP gel spin separation columns (ThermoFisher Scientific). Then, two-fold molar excess of EZ-Link™ Maleimide-PEG2-Biotin (ThermoFisher Scientific) was added to purified peptide solution and incubated for 1 h. […] Therefore, no further separation was carried out.
# (§1) To optimize all parameters of the direct ELISA protocol, Pierce 96-well polystyrene plates, (ThermoFisher Scientific) were coated overnight at 4° C with different concentrations of intact virus particles (ZIKV or DENV). The intact virus particles were diluted using 100 mM NaHCO3, pH 9.6, and aliquots of 100 μL were dispensed into each well of the plate using a multichannel pipette. This buffer pH assured a strong hydrophobic binding interaction between polystyrene and virus particles.
# The antibody 4G2 hybridoma mouse IgG2a was used as the reference and employed in combination with an anti-mouse IgG conjugated to HRP.
# (§2) After coating the plates overnight, the intact virus particles were removed by washing five times with the washing buffer (PBST) 10 mM PBS pH 7.4, 0.1% Tween-20, using an automated plate washer (MultiWash+, Molecular Devices, Sunnyvale, CA). Then, the plates were blocked with 200 μL of blocking buffers while shaking at 300 rpm at room temperature. The blocking buffers used were Pierce™ protein-free (PBS) blocking buffer (PF), Blocker™ BLOTTO (BT) in TBS, SuperBlock^TM blocking buffer, Blocker™ BSA (1X) in PBS all from ThermoFisher Scientific. After 2 h, the blocking buffers were removed using the same washing procedure mentioned above. Hundred microliter aliquots of several dilutions of peptides biotinylated in 10 mM PBS pH 7.4 were placed in each well and incubated for 2 h while shaking at 300 rpm at room temperature. After the incubation, the unreacted peptides were removed by using the plate washer with the same settings. Then, 100 μL-aliquots of streptavidin-HRP (ThermoFisher Scientific) at a concentration of 20 ng/mL were added into each well and incubated for 30 min at room temperature without shaking. After the incubation, excess streptavidin-HRP was removed and the wells were washed with the plate washer five times using the washing buffer. Finally, 100 μL-aliquots of the Ultra TMB-ELISA substrate solution (ThermoFisher Scientific) were added and after 10 min, the reaction was stopped by adding 100 μL aliquots of the TMB stop solution from SeraCare, available online at; https://www.seracare.com (accessed on 1 abril 2019). The […] (450 nm) was read using a microplate reader (Clariostar Optima; BMG Labtech, Ortenberg, Germany).
# The corresponding blank signals in triplicates were obtained by using all reagents without peptides. They were subtracted to the average absorbance values for triplicate wells of each test.
# The optimal concentration of peptide was determined by coating clear 96-well plates with a solution of 10^7 copies/mL of intact ZIKV particles. Concentrations of peptide, from 0.1 to 50 μM, diluted in 10 mM PBS pH 7.4 were added to wells of the microplates coated with intact ZIKV particles. […] Thus, a peptide concentration of 20 μM was used to estimate the linear range and the limit of detection (LOD) of the assay by using 10-fold serial dilutions of intact ZIKV particles from 10^1 to 10^9 copies/mL.
# The regression parameters of the assay are reported in Table 4 and the sigmoidal trend in Figure 6. The LOD was interpolated from the calibration curves using LOD = AvB + 3 × SDB, where AvB and SDB were the average (Av) and the standard deviation (SD) of the blank measurements, respectively.
# intact ZIKV particles [2] = test: Urine and serum matrix effect on the direct ELISA signal; format: binding, Zika virus; settings: peptide 20 μM; for signal decrease in serum: serum diluted 1:10; for signal decrease in serum / signal decrease in urine: 10 mM PBS pH 7.4; for signal decrease in urine: urine diluted 1:1
# Experimental: as §2
# Usually, the presence of ZIKV in affected bodies is detected in biological fluids. Therefore, the analytical sensitivity of the selected peptides was tested in two biological matrices, namely, urine and serum. The matrix effect was investigated to understand how real biological fluids could modify the binding efficiency of the peptides.
# Figure 8 reports the ELISA data using solutions of peptides with or without the urine and serum obtained, coating clear 96-well plates with 10^6 and 10^7 copies/mL of intact ZIKV particles. Serum and urine were 1:10 and 1:1 diluted, respectively, with a concentrated peptide PBS solution to obtain a peptide final concentration of 20 μM (10 mM PBS, pH 7.4). A coating concentration of 10^5 was also tested, but no signal was observed after the addition of the biological matrix.
# [3] = test system: DENV-1 intact virus particles; test: Direct ELISA cross-reactivity, DENV-1; format: binding; settings: plates coated with 10^6 copies/mL of intact virus particles; peptide 20 μM
# Experimental: as §1
# (§3) After coating the plates overnight, the intact virus particles were removed by washing five times with the washing buffer (PBST) 10 mM PBS pH 7.4, 0.1% Tween-20, using an automated plate washer (MultiWash+, Molecular Devices, Sunnyvale, CA). Then, the plates were blocked with 200 μL of blocking buffers while shaking at 300 rpm at room temperature. The blocking buffers used were Pierce™ protein-free (PBS) blocking buffer (PF), Blocker™ BLOTTO (BT) in TBS, SuperBlock^TM blocking buffer, Blocker™ BSA (1X) in PBS all from ThermoFisher Scientific. After 2 h, the blocking buffers were removed using the same washing procedure mentioned above. […] The […] (450 nm) was read using a microplate reader (Clariostar Optima; BMG Labtech, Ortenberg, Germany). […]
# [4] = test system: DENV-2 intact virus particles; test: Direct ELISA cross-reactivity, DENV-2; format: binding; settings: plates coated with 10^6 copies/mL of intact virus particles; peptide 20 μM
# Experimental: as §1, §3
# [5] = 10^6 copies/mL of intact ZIKV particles
# [6] = 10^7 copies/mL of intact ZIKV particles
Substance,FPLR—Dynamic Range (intact ZIKV particles [1]),Long-term stability (intact ZIKV particles [1]) [Month],FPLR—C50 (intact ZIKV particles [1]),FPLR—maximum (intact ZIKV particles [1]),FPLR—minimum (intact ZIKV particles [1]),LOD (intact ZIKV particles [1]),signal decrease in serum (intact ZIKV particles [2]; [5]) [%],signal decrease in serum (intact ZIKV particles [2]; [6]) [%],signal decrease in urine (intact ZIKV particles [2]; [5]) [%],signal decrease in urine (intact ZIKV particles [2]; [6]) [%],"DENV/ZIKV signal ratio, DENV-1 [3]","DENV/ZIKV signal ratio, DENV-2 [4] [%]",detection limit in urine and serum (intact ZIKV particles [2]; serum 1:10 and urine 1:1)
"C-SWPGQ [P1, experimental peptide with N-terminal cysteine, labelled with maleimide-PEG2-biotin for ELISA]","7-8 log[ZIKV], copies/mL",>1,"6.6 log[ZIKV], copies/mL",0.140 Absorbance (450 nm),0.001 Absorbance (450 nm),"6.8 log[ZIKV], copies/mL",–,–,–,–,–,–,–
"C-GSKANNG [H1, experimental peptide with N-terminal cysteine, labelled with maleimide-PEG2-biotin for ELISA]","5-7 log[ZIKV], copies/mL",>1,"6.2 log[ZIKV], copies/mL",0.826 Absorbance (450 nm),0.036 Absorbance (450 nm),"4.5 log[ZIKV], copies/mL",82,73,53,45,up to 42%,–,–
"C-KTDAYS [X2, experimental peptide with N-terminal cysteine, labelled with maleimide-PEG2-biotin for ELISA]","6-8 log[ZIKV], copies/mL",>1,"6.2 log[ZIKV], copies/mL",0.915 Absorbance (450 nm),0.007 Absorbance (450 nm),"5.8 log[ZIKV], copies/mL",–,–,–,–,–,–,–
"C-SHRNATA [H2, experimental peptide with N-terminal cysteine, labelled with maleimide-PEG2-biotin for ELISA]","6-8 log[ZIKV], copies/mL",>1,"6.5 log[ZIKV], copies/mL",0.683 Absorbance (450 nm),0.014 Absorbance (450 nm),"5.7 log[ZIKV], copies/mL",–,–,–,–,–,–,–
"C-KRNATP [X1, experimental peptide with N-terminal cysteine, labelled with maleimide-PEG2-biotin for ELISA]","5-7 log[ZIKV], copies/mL",>1,"6.1 log[ZIKV], copies/mL",0.973 Absorbance (450 nm),0.026 Absorbance (450 nm),"4.8 log[ZIKV], copies/mL",95,89,95,82,32%,49,10^7 copies/mL
"C-LRGHA [P2, experimental peptide with N-terminal cysteine, labelled with maleimide-PEG2-biotin for ELISA]","5-7 log[ZIKV], copies/mL",>1,"6.1 log[ZIKV], copies/mL",0.928 Absorbance (450 nm),0.036 Absorbance (450 nm),"4.7 log[ZIKV], copies/mL",77,72,72,85,–,34,–
